The values that follow come from ChEMBL document CHEMBL1649217, “Emergence of Klebsiella pneumoniae ST258 with KPC-2 in Poland” (2009).

Holding throughout (format): functional
Experiment [1] relates to Escherichia coli. Briefly: Antimicrobial activity against rifampicin-resistant Escherichia coli A15 transconjugant expressing beta-lactamase KPC-2/TEM-1 by Etest.
Experiment [2] deals with Escherichia coli. Briefly: Antimicrobial activity against rifampicin-resistant Escherichia coli A15 transconjugant expressing beta-lactamase SHV-12 by Etest.
Experiment [3] has as its system Klebsiella pneumoniae. Briefly: Antimicrobial activity against Klebsiella pneumoniae isolate 2641/08 obtained from urine of patient with ischemic cardiomyopathy and several comorbidities by Etest.
Experiment [4] concerns Escherichia coli. Briefly: Antimicrobial activity against rifampicin-resistant Escherichia coli A15 by Etest.
The test system of experiment [5] is Klebsiella pneumoniae. Briefly: Antimicrobial activity against Klebsiella pneumoniae isolate 2337/08 obtained from patient with ischemic cardiomyopathy and several comorbidities.
Experiment [6] concerns Escherichia coli. Briefly: Antimicrobial activity against rifampicin-resistant Escherichia coli A15 by Etest in presence of beta-lactamase inhibitor clavulanic acid.
Experiment [7] relates to Escherichia coli. Briefly: Antimicrobial activity against rifampicin-resistant Escherichia coli A15 transconjugant expressing beta-lactamase SHV-12 by Etest in presence of beta-lactamase inhibitor clavulanic acid.
The subject of experiment [8] is Escherichia coli. Briefly: Antimicrobial activity against rifampicin-resistant Escherichia coli A15 transconjugant expressing beta-lactamase KPC-2/TEM-1 by Etest in presence of beta-lactamase inhibitor clavulanic acid.
The subject of experiment [9] is Klebsiella pneumoniae. Briefly: Antimicrobial activity against Klebsiella pneumoniae isolate 2641/08 obtained from urine of patient with ischemic cardiomyopathy and several comorbidities by Etest in presence of beta-lactamase inhibitor clavulanic acid. The following applies: isolate 2641/08, Urine.
The subject of experiment [10] is Escherichia coli. Briefly: Antimicrobial activity against rifampicin-resistant Escherichia coli A15 by Etest in presence of beta-lactamase inhibitor Tazobactam.
Experiment [11] deals with Escherichia coli. Briefly: Antimicrobial activity against rifampicin-resistant Escherichia coli A15 transconjugant expressing beta-lactamase SHV-12 by Etest in presence of beta-lactamase inhibitor Tazobactam.
Experiment [12] relates to Escherichia coli. Briefly: Antimicrobial activity against rifampicin-resistant Escherichia coli A15 transconjugant expressing beta-lactamase KPC-2/TEM-1 by Etest in presence of beta-lactamase inhibitor Tazobactam.
For experiment [13], the system named is Klebsiella pneumoniae. Briefly: Antimicrobial activity against Klebsiella pneumoniae isolate 2641/08 obtained from urine of patient with ischemic cardiomyopathy and several comorbidities by Etest in presence of beta-lactamase inhibitor Tazobactam. Particulars: isolate 2641/08, Urine.

In brackets after ≈: the same amount, converted by molar mass.

Regarding `CC1(C)S[C@@H]2[C@H](NC(=O)[C@H](N)c3ccccc3)C(=O)N2[C@H]1C(=O)O` [AMPICILLIN], the MIC – broadly, the smallest concentration in the dilution series that meets the test's criterion for growth inhibition – with Escherichia coli [1] was > 256 µg/mL; in the experiment with Escherichia coli [2], > 256 µg/mL; with Klebsiella pneumoniae [3] (isolate 2641/08, Urine), > 256 µg/mL; against Escherichia coli [4], 3 µg/mL (≈ 8.59 µM).
As for `CO/N=C(\C(=O)N[C@@H]1C(=O)N2C(C(=O)[O-])=C(C[N+]3(C)CCCC3)CS[C@H]12)c1csc(N)n1`, the MIC was 1.5 µg/mL (≈ 3.12 µM) in the experiment with Escherichia coli [1]; 0.5 µg/mL (≈ 1.04 µM) against Escherichia coli [2]; > 32 µg/mL against Klebsiella pneumoniae [3] (isolate 2641/08, Urine); 0.047 µg/mL (≈ 0.0978 µM) with Escherichia coli [4].
The corresponding values for `CN(C)[C@@H]1C(O)=C(C(N)=O)C(=O)[C@@]2(O)C(O)=C3C(=O)c4c(O)cccc4[C@@](C)(O)[C@H]3C[C@@H]12` [TETRACYCLINE] are 2 µg/mL (≈ 4.5 µM), 1.5 µg/mL (≈ 3.38 µM), 32 µg/mL (≈ 72 µM) and 2 µg/mL (≈ 4.5 µM).
As to `CO/N=C(\C(=O)N[C@@H]1C(=O)N2C(C(=O)O)=C(COC(C)=O)CS[C@H]12)c1csc(N)n1` [CEFOTAXIME], the MIC with Escherichia coli [1] was 2 µg/mL (≈ 4.39 µM); in the experiment with Escherichia coli [2] it was 1.5 µg/mL (≈ 3.29 µM); with Klebsiella pneumoniae [3] (isolate 2641/08, Urine), 128 µg/mL (≈ 281 µM); in the experiment on Escherichia coli [4], 0.047 µg/mL (≈ 0.103 µM).
Regarding `O=C(O)c1cn(C2CC2)c2cc(N3CCNCC3)c(F)cc2c1=O` [CIPROFLOXACIN], the MIC with Klebsiella pneumoniae [3] (isolate 2641/08, Urine) is > 32 µg/mL.
For `NCC[C@H](O)C(=O)N[C@@H]1C[C@H](N)[C@@H](O[C@H]2O[C@H](CN)[C@@H](O)[C@H](O)[C@H]2O)[C@H](O)[C@H]1O[C@H]1O[C@H](CO)[C@@H](O)[C@H](N)[C@H]1O` [AMIKACIN], the MIC is 1.5 µg/mL (≈ 2.56 µM) in the experiment with Escherichia coli [1]; 1 µg/mL (≈ 1.71 µM) against Escherichia coli [2]; 12 µg/mL (≈ 20.5 µM) in the experiment on Klebsiella pneumoniae [3] (isolate 2641/08, Urine); 1 µg/mL (≈ 1.71 µM) against Escherichia coli [4].
Turning to `CN(C)c1cc(NC(=O)CNC(C)(C)C)c(O)c2c1C[C@H]1C[C@H]3[C@H](N(C)C)C(O)=C(C(N)=O)C(=O)[C@@]3(O)C(O)=C1C2=O` [TIGECYCLINE], the MIC in the experiment with Escherichia coli [1] came out at 0.38 µg/mL (≈ 0.649 µM); with Escherichia coli [2], 0.38 µg/mL (≈ 0.649 µM); in the experiment on Klebsiella pneumoniae [3] (isolate 2641/08, Urine), 3 µg/mL (≈ 5.12 µM); against Escherichia coli [4], 0.38 µg/mL (≈ 0.649 µM).
`C[C@@H](O)[C@H]1C(=O)N2C(C(=O)O)=C(S[C@@H]3CN[C@H](C(=O)N(C)C)C3)[C@H](C)[C@H]12` [MEROPENEM]: the minimal inhibitory concentration (MIC) worked out at 0.75 µg/mL (≈ 1.96 µM) against Escherichia coli [1]; 0.047 µg/mL (≈ 0.123 µM) against Escherichia coli [2]; 3 µg/mL (≈ 7.82 µM) in the experiment on Klebsiella pneumoniae [3] (isolate 2641/08, Urine); 0.032 µg/mL (≈ 0.0834 µM) with Escherichia coli [4].
In the case of `C[C@@H](O)[C@H]1C(=O)N2C(C(=O)O)=C(SCCNC=N)C[C@H]12` [IMIPENEM ANHYDROUS], the MIC with Escherichia coli [1] amounted to 3 µg/mL (≈ 10 µM); in the experiment with Escherichia coli [2], 0.25 µg/mL (≈ 0.835 µM); in the experiment on Klebsiella pneumoniae [3] (isolate 2641/08, Urine) it was 2 µg/mL (≈ 6.68 µM); in the experiment with Klebsiella pneumoniae [5], 2 µg/mL (≈ 6.68 µM); in the experiment on Escherichia coli [4], 0.25 µg/mL (≈ 0.835 µM).
For COLISTIN, the MIC in the experiment with Escherichia coli [1] was determined as 0.25 µg/mL; against Escherichia coli [2], 0.19 µg/mL; in the experiment on Klebsiella pneumoniae [3] it was 0.38 µg/mL; with Escherichia coli [4], 0.25 µg/mL.
Regarding GENTAMICIN, the MIC against Escherichia coli [1] is 0.25 µg/mL; in the experiment on Escherichia coli [2], 0.19 µg/mL; in the experiment on Klebsiella pneumoniae [3] it was 1 µg/mL; against Escherichia coli [4], 0.19 µg/mL.
For the molecule `CC1(C)S[C@@H]2[C@H](NC(=O)[C@H](N)c3ccc(O)cc3)C(=O)N2[C@H]1C(=O)O` [AMOXICILLIN], the minimal inhibitory concentration (MIC) in the experiment with Escherichia coli [6] was 4 µg/mL; in the experiment on Escherichia coli [7], 4 µg/mL; in the experiment with Escherichia coli [8], 24 µg/mL; with Klebsiella pneumoniae [9] it was > 256 µg/mL.
Regarding `CCN1CCN(C(=O)N[C@@H](C(=O)N[C@@H]2C(=O)N3[C@@H]2SC(C)(C)[C@@H]3C(=O)O)c2ccccc2)C(=O)C1=O` [PIPERACILLIN], the MIC in the experiment with Escherichia coli [10] is 1 µg/mL; in the experiment on Escherichia coli [1], 96 µg/mL (≈ 185 µM); against Escherichia coli [2] it was 32 µg/mL (≈ 61.8 µM); with Klebsiella pneumoniae [3] (isolate 2641/08, Urine) it was > 256 µg/mL; with Escherichia coli [11] it was 1 µg/mL; in the experiment with Escherichia coli [12] it was 48 µg/mL. The results for the MIC against Escherichia coli [4] and in the experiment on Klebsiella pneumoniae [13] were 1.5 µg/mL (≈ 2.9 µM) and > 256 µg/mL, respectively.
Turning to `CC(C)(O/N=C(\C(=O)N[C@@H]1C(=O)N2C(C(=O)[O-])=C(C[n+]3ccccc3)CS[C@H]12)c1csc(N)n1)C(=O)O` [CEFTAZIDIME], the MIC against Escherichia coli [1] was 3 µg/mL (≈ 5.49 µM); against Escherichia coli [2], 16 µg/mL (≈ 29.3 µM); against Klebsiella pneumoniae [3] (isolate 2641/08, Urine) it was > 256 µg/mL; against Escherichia coli [4], 0.25 µg/mL (≈ 0.457 µM).
